Assay results reported in PubChem BioAssay (NCI).
Several values for one entry are separate records, joined by “and”; a condition that tells them apart may be missing. Equal entries are not always repeated.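 The compound was tested at five concentrations on cells cultured in 96-well plates, with a 48-hour exposure period. GI50: concentration for 50% inhibition of growth. TGI: concentration producing complete growth inhibition.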

Tests used:
Assay in all cases: NCI anticancer screen, dose series, 48 h
SK-OV-3 ovarian = system: SK-OV-3 ovarian
U251 CNS = system: U251 CNS
HCT-15 colon = system: HCT-15 colon
COLO 205 colon = system: COLO 205 colon
BT-549 breast = system: BT-549 breast
A498 renal = system: A498 renal
HOP-62 NSCLC = system: HOP-62 NSCLC
SW-620 colon = system: SW-620 colon
IGROV1 ovarian = system: IGROV1 ovarian
SK-MEL-2 melanoma = system: SK-MEL-2 melanoma

Structure (SMILES)	GI50 (SK-OV-3 ovarian)	TGI (SK-OV-3 ovarian)	GI50 (U251 CNS)	TGI (U251 CNS)	GI50 (HCT-15 colon)	TGI (HCT-15 colon)	GI50 (COLO 205 colon)	TGI (COLO 205 colon)	GI50 (BT-549 breast)	TGI (BT-549 breast)	GI50 (A498 renal)	TGI (A498 renal)	GI50 (HOP-62 NSCLC)	TGI (HOP-62 NSCLC)	GI50 (SW-620 colon)	TGI (SW-620 colon)	GI50 (IGROV1 ovarian)	TGI (IGROV1 ovarian)	GI50 (SK-MEL-2 melanoma)	TGI (SK-MEL-2 melanoma)
O=[N+]([O-])c1ccc(N2CCN(Cc3ccccc3)CC2)c2c1no[n+]2[O-]	1.98 µM	4.89 µM	1.24 µM	2.65 µM	0.805 µM	2.46 µM	1.48 µM	3.04 µM	1.93 µM	3.78 µM	1.52 µM	4.35 µM	1.22 µM	2.77 µM	1.2 µM	3.05 µM	0.951 µM	2.66 µM	2.22 µM	4.76 µM
COC(=O)/C=C/c1cc(O)c2c(c1)C(C(=O)OC)C(c1ccc(O)c(O)c1)O2 (configuration not stated)	1 µM and 0.585 µM	71.7 µM and 35.7 µM	0.116 µM	46.2 µM and 23.2 µM	0.0991 µM	68.8 µM and > 100 µM	4.19 µM and 2.49 µM	29 µM and 12.3 µM	0.127 µM and 0.103 µM	39.8 µM and 5.39 µM	2.85 µM and 0.735 µM	16.3 µM and 6.21 µM	0.493 µM and 0.137 µM	> 72.4 µM and 46.5 µM	0.108 µM	> 100 µM	0.822 µM and 0.509 µM	33.8 µM and > 79.5 µM	0.454 µM and 0.093 µM	35.2 µM and > 55 µM
O=C1OC(c2ccco2)=N/C1=C\c1ccc(Cl)c(Cl)c1	–	> 100 µM	–	> 100 µM	–	> 100 µM	–	> 100 µM	–	> 100 µM	–	> 100 µM	–	94.6 µM	–	> 100 µM	–	> 100 µM	–	> 100 µM
Cc1[nH]c(=O)[nH]c(=O)c1N(CCF)CCCl	332 µM and 472 µM	741 µM and 1330 µM and 1240 µM	212 µM	693 µM and 1220 µM and 1200 µM	182 µM and 310 µM and 186 µM	503 µM and 486 µM and 1330 µM	337 µM	930 µM and 805 µM	–	769 µM	247 µM and 311 µM	507 µM and 466 µM and 967 µM	439 µM	872 µM and 1100 µM and 1150 µM	321 µM and 289 µM and 147 µM	1100 µM and 805 µM	284 µM	793 µM and 1260 µM and 1270 µM	239 µM	447 µM and 832 µM and 808 µM
COc1cc2oc(=O)cc(C)c2cc1[N+](=O)[O-]	–	> 100 µM	–	> 100 µM	–	44.4 µM	–	> 60.6 µM	–	35.9 µM	–	> 84 µM	–	> 100 µM	–	> 64.1 µM	–	> 84.8 µM	–	58 µM
CN(C)CCCCN1CCc2c(n(C)c3ccccc23)C1=O	–	> 95 µM	72.4 µM and 34.1 µM	99.5 µM and > 60.1 µM	–	54.9 µM and 58.3 µM	–	61.7 µM and 33 µM	–	> 61.5 µM and 95.3 µM	> 59 µM and 19.9 µM	> 85.1 µM and 49 µM	–	> 80.8 µM and 63.7 µM	–	> 81.6 µM and 63.9 µM	–	> 100 µM	–	50.2 µM and 35.9 µM
Cn1c(=O)oc2cc(C(=O)CSC(=S)N3CCCCCC3)ccc21	–	> 100 µM	–	> 100 µM	–	> 100 µM	–	> 100 µM	–	> 100 µM	–	> 100 µM	–	> 100 µM	–	> 100 µM	–	> 100 µM	–	> 100 µM
O=[N+]([O-])c1cnc(Sc2ccncn2)c([N+](=O)[O-])c1	16.9 µM	31.1 µM	29.4 µM	> 100 µM	2.78 µM	11.2 µM	1.98 µM	3.58 µM	15.2 µM	28.9 µM	24.9 µM	65.3 µM	14.6 µM	28.1 µM	2.19 µM	4.45 µM	16.7 µM	31.4 µM	16.8 µM	32.9 µM
c1ccc(N=C2c3ccccc3CN2c2ccccc2)cc1	–	> 100 µM	–	> 100 µM	–	> 100 µM	–	> 100 µM	–	> 100 µM	–	–	–	> 100 µM	–	> 100 µM	–	> 100 µM	–	> 100 µM
Cc1ccc(Nc2nc(NCCO)c3ccccc3n2)cc1C	14.2 µM	27.6 µM	2.75 µM	12.1 µM	3.26 µM	13.3 µM	1.81 µM	3.73 µM	11.5 µM	23.6 µM	0.0535 µM	2.06 µM	10.7 µM	24.1 µM	4.03 µM	15.7 µM	9.65 µM	23.8 µM	11.3 µM	24 µM
Nc1ccccc1C#CC#Cc1ccccc1N	58 µM	> 100 µM	8.53 µM	21 µM	11.4 µM	25.5 µM	22.5 µM	75.7 µM	20.5 µM	49 µM	–	–	15.9 µM	29.9 µM	15.7 µM	35.3 µM	18.6 µM	86.2 µM	21.7 µM	51.7 µM
CCC/C(=N\NC(=S)N1CCN(c2ccccn2)CC1)c1ccccn1	1.34 µM	2.15 µM and 2.68 µM	–	0.48 µM and 1.38 µM	–	1.55 µM and 1.75 µM	–	–	–	1.92 µM	0.194 µM	3.93 µM and 1.36 µM	0.0603 µM	2.92 µM and 1.59 µM	0.0117 µM	1.36 µM and 1.21 µM	–	2.3 µM and 3.11 µM	0.19 µM	0.312 µM and 1.65 µM
C[Si](C)(C)C#CCO[Si](C)(C)C	–	> 100 µM	–	> 100 µM	–	> 100 µM	–	> 100 µM	–	> 100 µM	–	> 100 µM	–	> 100 µM	–	> 100 µM	–	36.8 µM	–	> 100 µM
CNc1ccccc1C(=O)N/N=C/C=C/c1ccccc1	4.15 µM	> 100 µM	1.19 µM	34.8 µM	0.457 µM	> 74.1 µM	0.671 µM	10.3 µM	53.2 µM	> 100 µM	0.39 µM	5.81 µM	6.9 µM	> 61.6 µM	0.454 µM	> 100 µM	4.41 µM	> 100 µM	0.733 µM	78.2 µM
S=CN1CCCCC1	–	> 100 µM	–	> 100 µM	–	> 100 µM	–	> 100 µM	–	> 100 µM	–	> 100 µM	–	> 100 µM	–	> 100 µM	–	> 100 µM	–	> 100 µM
CC(O)C1OC(O)C2OC(C)(C)OC12 (configuration not stated)	–	> 100 µM	–	> 100 µM	–	> 100 µM	–	> 100 µM	–	> 100 µM	–	> 100 µM	–	> 100 µM	–	> 100 µM	–	> 100 µM	–	> 100 µM
CN(C)CCNC(=O)c1ccc(Nc2nc3ccccc3c3occc23)cc1	19.3 µM	37.2 µM	2.45 µM	6.35 µM	2.12 µM	4.75 µM	22.6 µM	59.7 µM	5.69 µM	23.9 µM	12.3 µM	28.1 µM	3.35 µM	8.16 µM	5.96 µM	25.8 µM	2.18 µM	10.3 µM	9.71 µM	26.6 µM
Nc1c(C(=O)Nc2ccccc2)sc2nc3c(cc12)CCCCCC3	0.465 µM	3 µM	0.395 µM	7.78 µM	0.314 µM	14 µM	0.307 µM	1.48 µM	0.286 µM	4.05 µM	0.248 µM	1.31 µM	0.648 µM	6.97 µM	0.36 µM	50.9 µM	0.863 µM	19.9 µM	0.857 µM	8.89 µM
CCC1=C(C)/C(=C/c2[nH]c(C)c(C(=O)CCCCC(=O)OC)c2C)N=C1c1ccc[nH]1	34.6 µM	> 80.6 µM	12.6 µM	33.1 µM	15.4 µM	66.8 µM	12.6 µM	> 100 µM	3.8 µM	> 41.3 µM	23.9 µM	59.5 µM	13.9 µM	28.5 µM	2.18 µM	4.82 µM	21.5 µM	> 63.8 µM	19.4 µM	46.2 µM
CCCCCCCCCCCCN1C(C)=CS/C1=C\C=C\c1scc(C)[n+]1CCCCCCCCCCCC	2.74 µM	22.9 µM	–	–	2.32 µM	21.6 µM	1.26 µM	4.13 µM	1.54 µM	7.17 µM	0.822 µM	4.09 µM	3.51 µM	28.7 µM	1.71 µM	7.19 µM	–	–	–	–
CCN1C(=O)C/C(=C\C(C)=O)Nc2ccccc21	–	> 100 µM	–	> 100 µM	> 100 µM	> 100 µM	–	> 100 µM	> 100 µM	> 100 µM	> 100 µM	> 100 µM	–	> 100 µM	–	> 100 µM	–	> 100 µM	–	> 100 µM
C=C1C(=O)O[C@H]2[C@H]1CC/C(COC(=O)C(=O)c1c[nH]c3ccccc13)=C\CC[C@@]1(C)O[C@@H]21	11.9 µM	24.6 µM	1.86 µM	3.64 µM	1.75 µM	4.02 µM	1.8 µM	3.91 µM	2.08 µM	5.22 µM	8.56 µM	20.7 µM	1.72 µM	4 µM	3.09 µM	16.6 µM	2.11 µM	4.39 µM	1.63 µM	3.78 µM
COc1ccc(-c2ccc(C3CC(c4ccc(O)cc4)=NN3)o2)c([N+](=O)[O-])c1 (configuration not stated)	19.8 µM	> 100 µM	19 µM	> 100 µM	35.4 µM	> 100 µM	27.2 µM	82.7 µM	32.8 µM	> 100 µM	30.4 µM	> 100 µM	34 µM	> 100 µM	37.3 µM	> 100 µM	84.9 µM	> 100 µM	–	–
N#CC1=C(N)Oc2cc3c(cc2C1c1cccs1)OCO3 (configuration not stated)	0.575 µM	8.1 µM	0.397 µM	31.9 µM	0.486 µM	> 100 µM	0.366 µM	1.66 µM	0.882 µM	37.6 µM	0.234 µM	10.2 µM	0.484 µM	> 100 µM	0.356 µM	> 100 µM	1.1 µM	> 100 µM	0.252 µM	0.783 µM
Cn1c(C(N)=O)cc2c1-c1nc(Nc3ccccc3)ncc1CCC2	3.51 µM	20.8 µM	3.55 µM	> 100 µM	3.4 µM	28.6 µM	4.77 µM	17.7 µM	3.29 µM	27.8 µM	0.204 µM	0.955 µM	2.96 µM	52.6 µM	6.31 µM	97.7 µM	3.87 µM	24.2 µM	5.42 µM	23.1 µM
CC(C(=O)N1C(=O)N(C(=O)C(C)C(O)c2ccccc2)C(c2ccccc2)C1c1ccccc1)C(O)c1ccccc1 (configuration not stated)	–	–	–	27.8 µM	–	> 100 µM	–	28.1 µM	–	38.8 µM	–	–	–	> 100 µM	–	> 100 µM	–	> 100 µM	–	50.2 µM
O=C(Nc1ccc(-c2nc3cc4ccccc4cc3[nH]2)cc1)c1cccc(Br)c1	16.3 µM	32.8 µM	5.23 µM	19 µM	4.12 µM	42.1 µM	8.87 µM	40 µM	12.6 µM	28.5 µM	47.1 µM	> 100 µM	7.28 µM	20.4 µM	3.09 µM	12.8 µM	15 µM	42.2 µM	–	–
Oc1ccc2ccccc2c1C=NCCCN=Cc1c(O)ccc2ccccc12	24.8 µM	67.5 µM	3.8 µM	15.2 µM	5.13 µM	28.5 µM	15.9 µM	31.1 µM	18.5 µM	47.8 µM	–	–	22.6 µM	47.4 µM	12.1 µM	61.8 µM	28.1 µM	> 100 µM	12.6 µM	37.2 µM
CC1=C(C)C(=O)c2c(c(C(=O)c3ccccc3)c3nc4ccccc4n3c2C)C1=O	–	–	27.5 µM	79.4 µM	> 100 µM	> 100 µM	> 100 µM	> 100 µM	54.7 µM	> 100 µM	> 100 µM	> 100 µM	23.4 µM	57.3 µM	> 100 µM	> 100 µM	55.2 µM	> 100 µM	47.8 µM	> 100 µM
O=C(Nc1ccc(S(=O)(=O)Nc2nccs2)cc1)c1cccnc1Nc1cccc(Cl)c1	20.8 µM	58.8 µM	13.2 µM	26.1 µM	13.5 µM	27.5 µM	18 µM	33.2 µM	16 µM	39.3 µM	10.1 µM	23.7 µM	16.2 µM	31.3 µM	14.2 µM	28.7 µM	15.4 µM	53 µM	–	–
